Laboratory results: PubChem BioAssay (NCI)
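Following 48 hours of exposure in 96-well plates, responses at five concentrations were used to interpolate endpoints linearly. Here, GI50 denotes the concentration required for 50% inhibition of growth. Definition used: TGI = concentration required for complete inhibition of growth.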

Assays:
Experiment in all cases: NCI tumour cell line growth inhibition, 48 h
MDA-MB-435 = system: MDA-MB-435
786-0 renal = system: 786-0 renal
UACC-257 melanoma = system: UACC-257 melanoma
TK-10 renal = system: TK-10 renal
PC-3 prostate = system: PC-3 prostate
A549 NSCLC = system: A549 NSCLC
SNB-75 CNS = system: SNB-75 CNS
MALME-3M melanoma = system: MALME-3M melanoma
SNB-78 CNS = system: SNB-78 CNS
DMS 114 small cell lung = system: DMS 114 small cell lung
KM20L2 colon = system: KM20L2 colon
DMS 273 small cell lung = system: DMS 273 small cell lung
DLD-1 colon = system: DLD-1 colon
XF 498 CNS = system: XF 498 CNS

SMILES	TGI (MDA-MB-435)	TGI (786-0 renal)	TGI (UACC-257 melanoma)	TGI (TK-10 renal)	TGI (PC-3 prostate)	TGI (A549 NSCLC)	GI50 (MDA-MB-435)	GI50 (UACC-257 melanoma)	GI50 (TK-10 renal)	GI50 (PC-3 prostate)	GI50 (SNB-75 CNS)	TGI (SNB-75 CNS)	GI50 (A549 NSCLC)	TGI (MALME-3M melanoma)	TGI (SNB-78 CNS)	TGI (DMS 114 small cell lung)	TGI (KM20L2 colon)	TGI (DMS 273 small cell lung)	TGI (DLD-1 colon)	TGI (XF 498 CNS)
CN1CC(c2ccccc2)C(O)(C2(c3ccccc3)CN(C)CC(c3ccccc3)C2=O)C(c2ccccc2)C1 (stereo unspecified)	> 100 µM	> 100 µM	> 100 µM	> 100 µM	> 100 µM	> 100 µM	–	–	–	–	–	–	–	–	–	–	–	–	–	–
CC[C@@]1(OC(=O)CN(C)C)C(=O)OCc2c1cc1n(c2=O)Cc2cc3c(N)cccc3nc2-1	0.259 µM	–	0.981 µM	> 100 µM	> 100 µM	1.37 µM	0.078 µM	0.0933 µM	1.68 µM	0.0524 µM	0.0428 µM	0.283 µM	0.0575 µM	–	–	–	–	–	–	–
O=C(O)C1OC1C(=O)O (stereo unspecified)	> 100 µM	> 100 µM	> 100 µM	> 100 µM	–	> 100 µM	–	–	–	–	–	> 100 µM	–	> 100 µM	–	–	–	–	–	–
OC(c1ccc(Cl)cc1)(c1ccc(Cl)cc1)c1cncnc1	36.7 µM	–	40.5 µM	57.5 µM	31.7 µM	–	–	–	–	–	–	52.7 µM	–	> 100 µM	–	–	–	–	–	–
O=S(=O)(O)c1cc(S(=O)(=O)O)c2cc(N=Nc3c(O)ccc4ccccc34)ccc2c1	> 100 µM	> 100 µM	> 100 µM	> 100 µM	> 100 µM	> 100 µM	–	–	–	–	–	> 100 µM	–	> 100 µM	–	–	–	–	–	–
O=C(O)C(O)(c1ccc(-c2ccccc2)cc1)c1ccc(-c2ccccc2)cc1	43.7 µM	80.4 µM	> 100 µM	> 100 µM	70 µM	> 100 µM	–	–	–	–	–	48.2 µM	–	60.4 µM	–	–	–	–	–	–
Clc1ccc(C2CC(c3cccc(Nc4ccncc4)c3)=NN2c2ccc(Cl)cc2)cc1 (stereo unspecified)	3.24 µM	–	–	3.5 µM	3.08 µM	–	1.71 µM	–	1.87 µM	1.55 µM	1.21 µM	2.56 µM	–	–	–	–	–	–	–	–
COc1cc2c(cc1OC)C1c3ccccc3CCN1CCC2 (stereo unspecified)	> 100 µM	> 100 µM	> 100 µM	> 100 µM	> 100 µM	> 100 µM	–	–	–	–	–	> 100 µM	–	> 100 µM	–	–	–	–	–	–
CCOC(=O)c1nc2ccccc2n(CC)c1=O	> 100 µM	–	> 100 µM	> 100 µM	> 100 µM	> 100 µM	–	–	–	–	–	–	–	> 100 µM	–	–	–	–	–	–
COc1ccc(NC(=S)NNC(=O)c2nsc3ccccc23)cc1	–	–	> 100 µM	> 100 µM	–	> 100 µM	–	–	–	–	–	66.8 µM	–	–	> 100 µM	> 100 µM	> 100 µM	81.5 µM	–	–
Nc1c(OCC(=O)O)ccc2cc(S(=O)(=O)O)ccc12	> 100 µM	> 100 µM	> 100 µM	> 100 µM	> 100 µM	> 100 µM	–	–	–	–	–	> 100 µM	–	> 100 µM	–	–	–	–	–	–
c1ccc2c(c1)OCCc1cn[nH]c1-2	–	–	> 100 µM	–	–	> 100 µM	–	–	–	–	–	> 92.5 µM	–	> 100 µM	> 100 µM	> 100 µM	> 100 µM	> 100 µM	> 100 µM	> 100 µM
CO/N=C(/C)c1cccc(Nc2nc3ccc(Cl)cc3c3[nH]c4ccccc4c23)c1	21.4 µM	20.5 µM	29.1 µM	–	32.6 µM	30.2 µM	–	–	–	–	–	–	–	–	–	–	–	–	–	–
O=NN1C(c2ccccc2)C2CCCC(C2=O)C1c1ccccc1 (stereo unspecified)	–	–	66.2 µM	–	–	> 100 µM	–	–	–	–	–	61 µM	–	19.8 µM	> 100 µM	> 93.8 µM	25.9 µM	55.2 µM	> 100 µM	33.3 µM
CCCCN(CCCC)CCC(O)c1cc(-c2ccc(C(F)(F)F)cc2)nc(-c2ccc(C(F)(F)F)cc2)c1 (stereo unspecified)	> 100 µM	> 100 µM	> 100 µM	> 100 µM	> 100 µM	–	–	–	–	–	–	> 100 µM	–	> 100 µM	–	–	–	–	–	–
O=C(Nn1c(-c2cccs2)nc2ccc(I)cc2c1=O)c1ccccc1	45.7 µM	> 100 µM	31.1 µM	63.1 µM	> 100 µM	45.1 µM	–	–	–	–	–	–	–	–	–	–	–	–	–	–
CC1C2CCC3C(O)C2(CC(O)C2(O)C1CC(O)C2(C)C)CC3(C)O (stereo unspecified)	> 100 µM	> 100 µM	> 100 µM	> 100 µM	> 100 µM	> 100 µM	–	–	–	–	–	–	–	> 100 µM	–	–	–	–	–	–
COc1ccc(C(=O)NC2=C(Cl)C(=O)c3ccccc3C2=O)cc1	7.53 µM	–	4.5 µM	7.7 µM	10.8 µM	> 36.7 µM	–	–	–	–	–	12.8 µM	–	3.19 µM	–	–	–	–	–	–
NC1C=NNC1=O (stereo unspecified)	–	–	> 100 µM	> 100 µM	–	> 100 µM	–	–	–	–	–	> 100 µM	–	> 100 µM	> 100 µM	> 100 µM	> 100 µM	> 100 µM	> 100 µM	> 100 µM
COC1CC(OC2CCC3(C)C(=CCC4C3C(OC(C)=O)C(OC(=O)CC(C)C)C3(C)C(C(C)=O)CCC43O)C2)OC(C)C1OC1CC(OC)C(OC2CC(OC)C(OC3OC(C)C(O)C(OC)C3O)C(C)O2)C(C)O1 (stereo unspecified)	63.5 µM	59.9 µM	> 100 µM	> 100 µM	> 100 µM	> 100 µM	–	–	–	–	–	70 µM	–	> 100 µM	–	–	–	–	–	–
C[C@]12Cc3cnc(-c4ccccc4)nc3C[C@@H]1CC[C@@H]1[C@@H]2CC[C@@]2(C)[C@H]1CC[C@]2(C)O	> 70.4 µM	27.5 µM	44.9 µM	39.1 µM	36.3 µM	57.6 µM	–	–	–	–	–	21.6 µM	–	43.5 µM	–	–	–	–	–	–
CN(CCO)Cc1ncccc1O	> 100 µM	–	> 100 µM	> 100 µM	> 100 µM	> 100 µM	–	–	–	–	–	> 100 µM	–	> 100 µM	–	–	–	–	–	–
